Assay results from patent publication US9040547B2, “Pyrrolopyrimidine and purine derivatives” (PFIZER INC., priority 2011, dated 2015).
pIC50: −log10 of the molar value.

What was measured:
Type in all cases: cell-based
EGFR Del (PC9) = target: T1, EGFR Del (PC9) (Homo sapiens, UniProt P00533, DEL746-750); test: EGFR ELISA, PC9 Del cells; details: read-out: EGFR_ELISA9E PC9 Del IC50;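 also: cellular EGFR autophosphorylation at Tyr1068 quantified by sandwich ELISA of cell lysates after 2 h compound exposure at 37 °C, 11-point threefold dilution series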
T1 construct: endogenous in cells; host or cells: PC-9

[1] = target: T2, EGFR L858R+T790M, endogenous (Homo sapiens, UniProt P00533, L858R/T790M); test: pEGFR Y1068 ELISA assay, NCI-H1975 cells; details: value marked (H1975): NCI-H1975 cells, 2 hrs compound treatment; read-out: pEGFRY1068 ELISA3T3T790M—L858R IC50 (nM), (H1975);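 also: sandwich ELISA of endogenous phospho-EGFR (Tyr1068) in lysates of treated cells, 11-point 1:3 serial dilution tested in duplicate per plate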
T2 construct: NCI-H1975 (EGFR L858R+T790M, endogenous); host or cells: NCI-H1975

NIH3T3/EGFR L858R+T790M = test: Cell proliferation assay (CellTiter-Glo), NIH3T3/EGFR L858R+T790M; details: Mus musculus, NIH3T3, 120 h, 3T3 cell line, three to five days of compound treatment, read-out: 3T3 L858R_T790M IC50
EGFR L858R, endogenous = target: T3, EGFR L858R, endogenous (Homo sapiens, UniProt P00533, L858R); test: pEGFR Y1068 ELISA assay, NCI-H3255 cells; details: value marked (H3255): NCI-H3255 cells, 2 hrs compound treatment; read-out: pEGFRY1068 ELISA3T3 L858R IC50 (nM), (H3255)
T3 construct: NCI-H3255 (EGFR L858R, endogenous); endogenous in cells; host or cells: NCI-H3255

NCI-H3255 = test: Cell proliferation assay (CellTiter-Glo), NCI-H3255; details: Homo sapiens, value marked (H3255), read-out: 3T3 L858R IC50, (H3255)
Description: (§1) Cell proliferation was measured using the CellTiter-Glo® Luminescent Cell Viability Assay. The assay involves the addition of a single reagent (CellTiter-Glo® Reagent) directly to cells cultured in serum-supplemented medium. The assay uses this one-step addition to induce cell lysis and generate a luminescent signal proportional to the amount of ATP present which is directly proportional to the number of metabolically active cells present in culture. The following cell lines were evaluated in this assay: NIH3T3/EGFR_L858R, NIH3T3/EGFR_E746-A750_deletion, NIH3T3/EGFR L858R+T790M, NIH3T3/EGFR_E746-A750_deletion+T790M, PC-9, PC9-DRH, NCI-H1975, and NCI-H3255. NIH/3T3 parental cells, NCI-H1975, and NCI-H3255 were purchased from the American Type Culture Collection (Manassas, Va.), and PC-9 cells were obtained from Japan. All cells were cultured according to recommendations. NIH/3T3 cells were grown in DMEM (Invitrogen, Carlsbad, Calif.) supplemented with 10% newborn calf serum (Invitrogen), and NIH3T3/EGFR mutant cells were grown in complete media with 5 μg/mL puromycin (Invitrogen). PC-9, NCI-H1975, and NCI-H3255 were grown in RPMI (Invitrogen, Carlsbad, Calif.) supplemented with 10% FBS (Sigma, St Louis, Mo.), and PC9-DRH cells were grown in complete media with 2 uM PF-00299804. Plasmids (pLPCX) with various EGFR constructs were made by GenScript (Piscataway, N.J.), and stable pools of NIH/3T3 cells expressing these constructs were made at Pfizer La Jolla. PC9-DRH cells were generated at Pfizer La Jolla by exposing cells to increasing concentrations of PF-00299804. Cells were plated in complete culture media (3000-5000 cells/well, 50 μl/well) on the bottom of white clear-bottom tissue culture treated microtiter plates (#3610, Corning Inc, Corning, N.Y.) and allowed to adhere overnight at 37° C., 5% CO2. The following day, compound dilution plates were prepared in 96 well clear V-bottom 0.5 mL polypropylene block plates (#3956, Corning, Inc). All cell lines were not evaluated for each compound. Each compound evaluated was prepared as a DMSO stock solution (10 mM). Compounds were tested in duplicate on each plate, with an 11-point serial dilution curve (1:3 dilution). Compound treatment (50 μl) was added from the compound dilution plate to the cell plate. The highest compound concentration was 1 or 10 μM (final), with a 0.3% final DMSO (#D-5879, Sigma, St Louis, Mo.) concentration. Plates were then incubated at 37° C., 5% CO2. After three to five days of compound treatment, CellTiter-Glo® Reagent (#G7573, Promega, Madison, Wis.) was prepared in one of two ways. If thawing a frozen aliquot of CellTiter-Glo® Reagent, the aliquot was thawed and equilibrated to room temperature prior to use while keeping it protected from light. Alternatively, new bottles of CellTiter-Glo® Buffer and CellTiter-Glo® Substrate were thawed and equilibrated to room temperature prior to use. CellTiter-Glo® Buffer (100 mL) was transferred into the amber bottle containing CellTiter-Glo® Substrate to reconstitute the lyophilized enzyme/substrate mixture, forming the CellTiter-Glo® Reagent. The reconstituted reagent was mixed by gently inverting the contents to obtain a homogeneous solution, and went into solution easily in less than one minute. Any unused reconstituted CellTiter-Glo® Reagent was immediately aliquoted and frozen at −20° C., protected from light. Cell plates were equilibrated at room temperature for approximately 30 minutes. An equivolume amount of CellTiter-Glo® Reagent (100 μL) was added to each well. Plates were mixed for two minutes on an orbital shaker to induce cell lysis, and then allowed to incubate at room temperature for 10 minutes to stabilize the luminescent signal. Luminescence was recorded using the PerkinElmer EnVision Excite Multilabel Reader used for endpoint reading for Luminescence detection (Waltham, Mass.). Data were analyzed using a four-parameter fit in Microsoft Excel. […]

[2] = target: T4, EGFR wildtype, endogenous (Homo sapiens, UniProt P00533); test: pEGFR Y1068 ELISA assay, A549 cells; details: full serum media, stimulated 10 min with EGF (40 ng/mL), read-out: pEGFRY1068 ELISAA549 IC50;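 also: sandwich ELISA of phospho-EGFR Tyr1068 in cell lysates, cells exposed to compound for 2 h before EGF stimulation, 11-point threefold dilution series run in duplicate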
T4 construct: A549 (EGFR wildtype, endogenous); host or cells: A549

PC9-DRH = test: Cell proliferation assay (CellTiter-Glo), PC9-DRH; details: value marked (PC9-DRH), read-out: 3T3 del_T790M IC50, (PC9-DRH)
Description: as §1

PC-9 = test: Cell proliferation assay (CellTiter-Glo), PC-9; details: Homo sapiens, value marked (PC9), read-out: 3T3 del IC50, (PC9)
Description: as §1

EGFR E746-A750 deletion = EGFR E746-A750 deletion (Homo sapiens, UniProt P00533, DEL746-750); test: pEGFR Y1068 ELISA assay, NIH3T3/EGFR_E746-A750 deletion cells; details: 3T3 Del cells, 2 hrs compound treatment; read-out: ELISA7E 3T3 Del IC50;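 also: sandwich ELISA on cell lysates detecting phospho-EGFR at Tyr1068, compounds run as 11-point threefold dilution series in duplicate, IC50 from inhibition of this phosphorylation signal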
EGFR L858R = EGFR L858R (Homo sapiens, UniProt P00533, L858R); test: pEGFR Y1068 ELISA assay, NIH3T3/EGFR_L858R cells; details: 3T3 cell line, 2 hrs compound treatment; read-out: pEGFRY1068 ELISA3T3 L858R IC50;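 also: sandwich ELISA of phospho-EGFR Tyr1068 in lysates of stably transfected NIH/3T3 pools after 2 h compound exposure at 37 °C, 11-point threefold dilution series run in duplicate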
EGFR L858R+T790M = EGFR L858R+T790M (Homo sapiens, UniProt P00533, L858R/T790M); test: pEGFR Y1068 ELISA assay, NIH3T3/EGFR_L858R+T790M cells; details: 3T3 cell line, 2 hrs compound treatment; read-out: pEGFRY1068 ELISA3T3T790M—L858R IC50;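 also: sandwich ELISA of EGFR phosphorylated at Tyr1068 in lysates of stably transfected NIH/3T3 cells, 11-point threefold dilution series run in duplicate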
NCI-H1975 = test: Cell proliferation assay (CellTiter-Glo), NCI-H1975; details: Homo sapiens, value marked (H1975), read-out: 3T3 L858R_T790M IC50, (H1975)
Description: as §1

[3] = system: NIH3T3/EGFR_E746-A750_deletion+T790M; test: Cell proliferation assay (CellTiter-Glo), NIH3T3/EGFR_E746-A750_deletion+T790M; details: Mus musculus, NIH3T3, 120 h, 3T3 cell line, three to five days of compound treatment, read-out: 3T3 del_T790M IC50
Description: as §1

T4 sequence (P00533 25-1210): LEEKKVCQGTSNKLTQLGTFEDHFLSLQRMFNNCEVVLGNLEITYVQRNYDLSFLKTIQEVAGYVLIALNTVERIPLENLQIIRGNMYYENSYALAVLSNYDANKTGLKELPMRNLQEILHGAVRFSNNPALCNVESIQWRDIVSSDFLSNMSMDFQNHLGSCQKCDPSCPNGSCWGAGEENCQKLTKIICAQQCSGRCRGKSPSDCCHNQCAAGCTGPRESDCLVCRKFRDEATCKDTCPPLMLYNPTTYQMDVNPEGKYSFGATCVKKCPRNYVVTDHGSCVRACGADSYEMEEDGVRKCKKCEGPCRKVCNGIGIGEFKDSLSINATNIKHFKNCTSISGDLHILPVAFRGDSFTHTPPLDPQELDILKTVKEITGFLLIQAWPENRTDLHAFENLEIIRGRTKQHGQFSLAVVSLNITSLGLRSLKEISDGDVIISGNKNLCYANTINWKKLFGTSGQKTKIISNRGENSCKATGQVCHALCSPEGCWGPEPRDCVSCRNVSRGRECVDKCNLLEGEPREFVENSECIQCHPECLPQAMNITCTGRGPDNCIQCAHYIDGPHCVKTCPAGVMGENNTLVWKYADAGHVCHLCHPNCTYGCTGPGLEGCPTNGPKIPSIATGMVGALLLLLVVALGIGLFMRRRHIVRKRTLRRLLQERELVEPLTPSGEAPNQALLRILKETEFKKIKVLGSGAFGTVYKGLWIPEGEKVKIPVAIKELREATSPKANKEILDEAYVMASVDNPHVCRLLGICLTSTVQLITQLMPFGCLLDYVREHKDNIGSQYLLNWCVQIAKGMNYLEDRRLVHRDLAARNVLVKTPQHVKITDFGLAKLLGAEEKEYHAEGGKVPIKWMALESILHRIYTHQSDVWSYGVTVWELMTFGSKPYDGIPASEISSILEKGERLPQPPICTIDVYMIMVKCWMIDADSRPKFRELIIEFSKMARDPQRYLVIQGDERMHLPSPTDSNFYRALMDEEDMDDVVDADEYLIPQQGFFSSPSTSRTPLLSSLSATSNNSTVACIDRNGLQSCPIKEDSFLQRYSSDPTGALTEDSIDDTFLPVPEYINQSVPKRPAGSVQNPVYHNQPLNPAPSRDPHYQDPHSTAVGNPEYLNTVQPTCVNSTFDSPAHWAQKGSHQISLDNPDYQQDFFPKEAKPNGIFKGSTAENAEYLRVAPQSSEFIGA
T3 sequence (P00533 25-1210 L858R): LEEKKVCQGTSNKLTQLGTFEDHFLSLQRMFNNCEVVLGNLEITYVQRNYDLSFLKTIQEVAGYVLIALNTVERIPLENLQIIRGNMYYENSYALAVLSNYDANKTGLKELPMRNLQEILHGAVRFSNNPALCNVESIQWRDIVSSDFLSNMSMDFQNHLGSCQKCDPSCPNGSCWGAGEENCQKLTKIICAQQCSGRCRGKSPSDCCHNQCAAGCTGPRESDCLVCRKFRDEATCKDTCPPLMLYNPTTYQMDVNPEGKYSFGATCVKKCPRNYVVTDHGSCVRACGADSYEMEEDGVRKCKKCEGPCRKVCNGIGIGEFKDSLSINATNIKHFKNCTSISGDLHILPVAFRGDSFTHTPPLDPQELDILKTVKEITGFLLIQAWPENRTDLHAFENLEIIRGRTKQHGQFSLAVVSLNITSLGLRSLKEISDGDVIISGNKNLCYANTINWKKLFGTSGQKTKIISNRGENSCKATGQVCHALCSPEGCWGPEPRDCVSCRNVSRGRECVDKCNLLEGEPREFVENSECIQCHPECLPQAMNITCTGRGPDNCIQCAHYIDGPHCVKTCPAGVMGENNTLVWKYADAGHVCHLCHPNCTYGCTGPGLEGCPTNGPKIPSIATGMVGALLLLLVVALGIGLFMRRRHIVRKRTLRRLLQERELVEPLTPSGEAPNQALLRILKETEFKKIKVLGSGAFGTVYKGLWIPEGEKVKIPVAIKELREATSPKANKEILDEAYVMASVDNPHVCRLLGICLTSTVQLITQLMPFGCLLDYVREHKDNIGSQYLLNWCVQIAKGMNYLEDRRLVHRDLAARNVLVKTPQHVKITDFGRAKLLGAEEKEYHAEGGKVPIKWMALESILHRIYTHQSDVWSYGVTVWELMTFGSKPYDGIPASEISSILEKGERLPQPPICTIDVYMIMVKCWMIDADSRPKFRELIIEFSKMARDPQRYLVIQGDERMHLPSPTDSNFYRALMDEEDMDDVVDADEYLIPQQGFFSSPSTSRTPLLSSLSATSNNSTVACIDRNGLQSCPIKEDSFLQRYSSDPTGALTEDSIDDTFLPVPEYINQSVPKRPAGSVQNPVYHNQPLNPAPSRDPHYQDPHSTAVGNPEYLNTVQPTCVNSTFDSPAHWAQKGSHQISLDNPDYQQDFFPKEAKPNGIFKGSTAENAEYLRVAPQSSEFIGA
T1 sequence (P00533 with tags, fused parts or gaps DEL746-750): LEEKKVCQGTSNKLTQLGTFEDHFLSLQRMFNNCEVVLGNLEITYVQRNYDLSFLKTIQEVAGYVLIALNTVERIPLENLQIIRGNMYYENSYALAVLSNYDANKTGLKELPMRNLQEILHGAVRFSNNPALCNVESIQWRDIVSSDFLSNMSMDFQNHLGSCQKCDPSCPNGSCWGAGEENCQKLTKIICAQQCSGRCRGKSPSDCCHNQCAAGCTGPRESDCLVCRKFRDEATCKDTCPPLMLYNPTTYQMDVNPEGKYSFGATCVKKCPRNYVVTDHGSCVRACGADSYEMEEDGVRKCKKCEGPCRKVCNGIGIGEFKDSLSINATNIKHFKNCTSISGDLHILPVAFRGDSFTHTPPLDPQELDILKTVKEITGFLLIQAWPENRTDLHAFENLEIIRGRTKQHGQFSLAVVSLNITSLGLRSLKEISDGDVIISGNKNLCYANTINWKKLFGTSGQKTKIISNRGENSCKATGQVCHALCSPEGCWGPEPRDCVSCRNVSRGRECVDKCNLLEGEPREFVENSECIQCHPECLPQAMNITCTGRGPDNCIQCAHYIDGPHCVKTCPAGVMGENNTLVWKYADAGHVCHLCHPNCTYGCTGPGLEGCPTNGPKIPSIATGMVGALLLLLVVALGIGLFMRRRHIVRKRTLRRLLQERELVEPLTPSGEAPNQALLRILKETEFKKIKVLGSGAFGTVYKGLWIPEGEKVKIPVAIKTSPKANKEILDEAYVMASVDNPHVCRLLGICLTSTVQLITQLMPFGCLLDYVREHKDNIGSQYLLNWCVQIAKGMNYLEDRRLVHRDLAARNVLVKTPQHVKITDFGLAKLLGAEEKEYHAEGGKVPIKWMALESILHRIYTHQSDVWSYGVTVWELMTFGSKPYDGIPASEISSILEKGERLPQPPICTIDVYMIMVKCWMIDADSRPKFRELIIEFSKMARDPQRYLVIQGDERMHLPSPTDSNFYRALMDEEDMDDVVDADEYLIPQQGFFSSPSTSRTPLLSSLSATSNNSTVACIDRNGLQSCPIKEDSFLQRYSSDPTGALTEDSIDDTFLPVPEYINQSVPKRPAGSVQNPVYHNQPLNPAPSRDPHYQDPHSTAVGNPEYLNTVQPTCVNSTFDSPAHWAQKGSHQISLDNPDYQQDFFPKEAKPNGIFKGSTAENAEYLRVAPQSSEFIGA
T2 sequence (P00533 25-1210 T790M/L858R): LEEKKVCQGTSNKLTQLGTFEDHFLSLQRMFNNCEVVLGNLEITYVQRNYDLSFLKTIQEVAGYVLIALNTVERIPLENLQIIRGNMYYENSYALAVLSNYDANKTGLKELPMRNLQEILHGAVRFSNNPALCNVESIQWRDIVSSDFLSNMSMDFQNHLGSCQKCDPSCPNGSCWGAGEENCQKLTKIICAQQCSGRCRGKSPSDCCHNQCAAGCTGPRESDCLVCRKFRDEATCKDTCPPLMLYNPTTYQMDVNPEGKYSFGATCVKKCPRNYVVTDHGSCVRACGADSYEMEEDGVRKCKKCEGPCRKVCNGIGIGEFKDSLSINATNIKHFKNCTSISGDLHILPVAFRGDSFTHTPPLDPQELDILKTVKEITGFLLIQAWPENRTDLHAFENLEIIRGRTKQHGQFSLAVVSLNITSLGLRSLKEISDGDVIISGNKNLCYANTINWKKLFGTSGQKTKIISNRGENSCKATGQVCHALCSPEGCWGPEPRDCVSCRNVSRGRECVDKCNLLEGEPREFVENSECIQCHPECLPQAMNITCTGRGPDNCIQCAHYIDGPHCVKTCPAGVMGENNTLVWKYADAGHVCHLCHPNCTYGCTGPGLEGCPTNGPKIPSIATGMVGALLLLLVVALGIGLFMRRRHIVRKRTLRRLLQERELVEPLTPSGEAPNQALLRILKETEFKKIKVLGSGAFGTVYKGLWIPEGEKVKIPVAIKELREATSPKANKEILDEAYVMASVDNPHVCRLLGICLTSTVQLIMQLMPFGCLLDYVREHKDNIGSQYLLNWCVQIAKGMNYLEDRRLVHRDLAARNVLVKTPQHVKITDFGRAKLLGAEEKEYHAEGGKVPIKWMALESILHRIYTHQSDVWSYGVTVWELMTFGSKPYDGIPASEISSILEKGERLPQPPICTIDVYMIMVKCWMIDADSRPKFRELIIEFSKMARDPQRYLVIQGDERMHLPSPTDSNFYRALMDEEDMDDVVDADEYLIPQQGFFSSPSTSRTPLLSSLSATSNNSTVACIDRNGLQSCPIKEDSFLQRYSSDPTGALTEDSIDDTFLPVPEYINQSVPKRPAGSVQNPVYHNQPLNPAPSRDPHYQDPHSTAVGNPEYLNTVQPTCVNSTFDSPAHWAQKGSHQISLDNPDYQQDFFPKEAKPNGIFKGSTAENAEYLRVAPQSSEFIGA

Row | Structure (SMILES) | pIC50 (EGFR Del (PC9)) | IC50 [1] [nM] | pIC50 (NIH3T3/EGFR L858R+T790M) | IC50 (EGFR L858R, endogenous) [nM] | pIC50 (NCI-H3255) | pIC50 [2] | pIC50 (PC9-DRH) | pIC50 (PC-9) | pIC50 (EGFR E746-A750 deletion) | pIC50 (EGFR L858R) | pIC50 (EGFR L858R+T790M) | pIC50 (NCI-H1975) | pIC50 [3]
1 | C=CC(=O)N1C[C@H](Nc2nc(Nc3cnn(C)c3)nc3[nH]cc(Cl)c23)[C@@H](C(F)(F)F)C1 [Example 87] | 7.32 | 14 | 6.00 to 7.00 | 43 | 7.00 to 8.00 | 6.02 | 6.00 to 7.00 | < 6.00 | – | – | – | – | –
2 | C=CC(=O)N1C[C@H](COc2nc(Nc3ccn(C)n3)nc3[nH]cc(Cl)c23)[C@@H](OC)C1 [Example 111] | – | – | – | – | 6.00 to 7.00 | < 5.00 | – | 6.00 to 7.00 | 6.05 | 6.45 | 7.85 | < 6.00 | –
3 | C=CC(=O)N1C[C@H](COc2nc(Nc3cnn(C)c3)nc3[nH]cc(Cl)c23)[C@@H](F)C1 [Example 90] | – | – | – | – | 7.00 to 8.00 | – | – | – | – | – | – | – | –
4 | C=CC(=O)N(C)[C@H]1C[C@H](Oc2nc(Nc3cnn(C)c3)nc3[nH]cc(-c4ccn(C)n4)c23)C1 [Example 86] | 5.63 | 266 | – | 477 | – | < 5.00 | – | – | – | – | – | – | –
5 | C=CC(=O)N(C)[C@H]1C[C@H](Oc2nc(Nc3cnn(CC#N)c3)nc3[nH]cc(Cl)c23)C1 [Example 116] | 6.48 | 24 | 7.00 to 8.00 | 107 | – | – | – | – | – | – | – | – | –
6 | C=CC(=O)N(C)[C@H]1C[C@H](Nc2nc(Nc3cn(C)nc3C)nc3[nH]cc(Cl)c23)C1 [Example 98] | 6.33 | – | 7.00 to 8.00 | 139 | 7.00 to 8.00 | 5.37 | 7.00 to 8.00 | 6.00 to 7.00 | – | – | 7.57 | – | –
7 | C=CC(=O)N1C[C@@H]2CN(c3nc(Nc4cn(C)nc4OC)nc4[nH]cc(Cl)c34)C[C@@H]2C1 [Example 99] | 6.09 | – | 6.00 to 7.00 | – | < 6.00 | 5.46 | 6.00 to 7.00 | < 6.00 | – | 6.32 | 6.42 | – | –
8 | C=CC(=O)N1C[C@H](COc2nc(Nc3cnn(CC(C)O)c3)nc3[nH]cc(Cl)c23)[C@@H](OC)C1 (single isomer, unassigned) [Example 100] | 5.37 | 153 | – | 101 | – | < 5.00 | – | – | – | – | – | – | –
9 | C=CC(=O)N(C)[C@H]1C[C@H](Oc2nc(Nc3cn(C)nc3C#N)nc3[nH]cc(Cl)c23)C1 [Example 80] | 6.05 | 25 | – | 273 | – | < 5.00 | – | – | – | – | – | – | –
10 | C=CC(=O)N1C[C@@H](F)[C@H](Nc2nc(Nc3cnn(C)c3)nc3[nH]cc(Cl)c23)C1 (single isomer, unassigned) [Example 83] | 7.06 | 5 | 7.00 to 8.00 | 31 | 7.00 to 8.00 | 6.35 | 7.00 to 8.00 | 6.00 to 7.00 | – | – | – | – | –
11 | C=CC(=O)N1CC(Nc2nc(Nc3cnn(C)c3)nc3[nH]cc(Cl)c23)C1 [Example 79] | < 5.17 | 136 | – | 776 | – | < 5.00 | – | – | – | – | – | – | –
12 | C=CC(=O)N[C@H]1C[C@H](Oc2nc(Nc3cnn(C)c3)nc3[nH]cc(-c4ccccn4)c23)C1 [Example 12, N-[trans-3-({2-[(1-methyl-1H-pyrazol-4-yl)amino]-5-(pyridin-2-yl)-7H-pyrrolo[2,3-d]pyrimidin-4-yl}oxy)cyclobutyl]prop-2-enamide] | 5.56 | 689 | – | 782 | – | < 5.00 | – | – | – | – | – | – | –
13 | C=CC(=O)N(C)[C@H]1C[C@H](Oc2nc(Nc3cnn(C)c3)nc3[nH]cc(-c4cccnc4)c23)C1 [Example 13, N-methyl-N-[trans-3-({2-[(1-methyl-1H-pyrazol-4-yl)amino]-5-(pyridin-3-yl)-7H-pyrrolo[2,3-d]pyrimidin-4-yl}oxy)cyclobutyl]prop-2-enamide] | 7.04 | 89 | 6.00 to 7.00 | 48 | 6.00 to 7.00 | – | 6.00 to 7.00 | 6.00 to 7.00 | – | – | – | – | –
14 | C=CC(=O)N1C[C@H](COc2nc(Nc3cnn(C)c3)nc3[nH]cc(Cl)c23)[C@@H](C(F)(F)F)C1 [Example 110] | – | – | – | – | 6.00 to 7.00 | – | – | 6.00 to 7.00 | – | – | – | < 6.00 | –
15 | C=CC(=O)N1CC[C@@H](Nc2nc(Nc3cnn(C)c3)nc3[nH]cc(Cl)c23)C1 [Example 96] | 6.47 | 15 | 7.00 to 8.00 | 101 | 6.00 to 7.00 | 5.66 | 7.00 to 8.00 | 6.00 to 7.00 | – | – | – | – | –
16 | C=CC(=O)N1C[C@H](Nc2nc(Nc3cnn(C)c3)nc3[nH]cc(Cl)c23)[C@H](n2ccnn2)C1 [Example 82] | < 5.00 | 638 | – | 973 | – | < 5.00 | – | – | – | – | – | – | –
17 | C=CC(=O)N(C)[C@H]1C[C@H](Oc2nc(Nc3cnn(C)c3)nc3[nH]cc(-c4ccccn4)c23)C1 [Example 89] | 7.38 | 6 | 7.00 to 8.00 | 33 | 6.00 to 7.00 | 5.78 | – | 6.00 to 7.00 | – | – | – | – | 7.00 to 8.00
18 | C=CC(=O)N1C[C@H](Nc2nc(Nc3cnn(C)c3)nc3[nH]cc(Cl)c23)[C@@H](C(F)F)C1 [Example 85] | 6.81 | – | 7.00 to 8.00 | 61 | 7.00 to 8.00 | – | 6.00 to 7.00 | < 6.00 | – | – | 6.72 | – | –
